Experimental findings from paper PMC8145107 (Pharmaceutics, 2021) are described below.

Data set [1] relates to ICR mice. Put plainly: Single-dose IV toxicity in ICR mice. Type of data set: in vivo, mouse. The settings on record: 14 days, n = 4. The source says: (§1) Male Sprague–Dawley rats (7-week-old) and male Institute of Cancer Research (ICR) mice (5-week-old) were purchased from Orient Bio (Seongnam, Korea) and Samtako Bio (Osan, Korea), respectively. The experimental animals were housed under conventional conditions and fasted overnight before surgery for catheterization. All procedures for animal experiments were in accordance with the guidelines by the Ewha Woman’s University Institutional Animal Care and Use Committee (IACUC, 15-049 and 16-062), Korea.
(§2) For single-dose toxicity study of each drug, ICR mice were divided into 6 groups of control (0.9% normal saline), vehicle, and four dosages of each inhibitor (n = 4 mice per group). Both inhibitors dissolved in the same solvent system as the pharmacokinetic study were administered to the mice by caudal vein injection at doses of 2.5, 7.5, 15 and 30 mg/kg. After a single administration, all mice were observed daily for general conditions including behavior, hair, eyes, and nose. In addition, body weight was measured on days 0, 3, 7, and 14 following IV administration.

A short description of data set [2]: Single-dose IV toxicity in ICR mice. The data set is classed as in vivo, mouse. To be noted: male, mouse, in vivo, not achieved by the maximum dose.
Source text: as §1, §2

For data set [3], the system named is NCI-H1650 xenograft. The data set can be described thus: NCI-H1650 tumor xenograft in mice. The data set is classed as in vivo, NOD-SCID mice. To be noted: NA49 20 mg/kg IP every other day + Gef 5 mg/kg IP. Here is the method:
(§3) NCI-H460 single-cell suspension (1 × 10^6 cells) was injected subcutaneously into the hind legs of 6-week-old BALB/c nude mice (Orientbio, Korea). […] NCI-H1650 single-cell suspension (1 × 10^7 cells) was injected subcutaneously into the hind leg of 6-week-old NOD-SCID mice (Koatech, Korea). When tumors reached a minimal volume of 150 mm^3, xenograft mice were treated 7 times with J2 or NA49 by local regional application with or without gefitinib (5 mg/kg) by IP injection. For this, J2 or NA49 (20 mg/kg) was injected by IP every two days, and gefitinib was injected every three days. Tumor volumes were determined according to the formula (L × l^2)/2, by measuring tumor length (L) and width (l) with a caliper. Tumors were measured every other day and allowed to grow for 15 or 34 days. All procedures for animal experiments were in accordance with the guidelines by the Ewha Woman’s University Institutional Animal Care and Use Committee (IACUC, 18-006), Seoul, Korea.

Data set [4] relates to HCC827 cells. Put plainly: MTT viability assay, HCC827. The data set is classed as cell-based. To be noted: Homo sapiens, 24 h. Here is the method:
(§4) The human NSCLC cell lines of NCI-H460, A549, HCC827, PC9, NCI-H1650, and NCI-H1975 were obtained from the American Type Culture Collection (Rockville, MD, USA). Cells were cultured in RPMI 1640 medium containing 10% FBS, 2 mmol/L L-glutamine, and 100 units/mL of penicillin and streptomycin and maintained at 37 °C in a humidified incubator containing 5% CO2.
(§5) Cell viability against gefitinib-, cisplatin-, and NA49-induced toxicity was determined using an MTT (Amersham Pharmacia Biotech) assay in 96-well plates. […] Next, cells were incubated with 100 µL of 5 mg/mL 3-(4,5-dimethylthiazol-2-yl)-2,5-diphenyltetrazolium bromide (Sigma Aldrich, M5655) for 2 h. After the MTT mixture was removed, 100 µL of DMSO was added to each well, and absorbance at 540 nm was measured using an ELISA plate reader (TECAN, Twinfinite PRO).

Data set [5] has as its system NCI-H1650 cells. The data set can be described thus: Cell death by PI staining / flow cytometry, NCI-H1650. The data set is classed as cell-based, human. To be noted: CompuSyn. As to the method: (§6) Cells were plated in 6-well culture plates at a density of 1 × 10^5 cells/well. Compounds were applied to the cells immediately after seeding. When cells were harvested, cells were washed once with 1× phosphate-buffered saline (PBS), dissociated using Trypsin-EDTA, and centrifuged at 13,000 rpm for 3 min at 4 °C. Next, 1 mL of 1× PBS was added to wash the pellet again. Finally, 1 mL of 1× PBS and 1 μg/mL of propidium iodide (PI) were added to each polystyrene round-bottom tube. Flow cytometric analysis was performed using a FACS flow cytometer (BD Bioscience). To measure cell death, 10^4 cells were counted, and PI-stained cells were analyzed. FACS analysis in accordance with the manufacturer’s instruction. […]
(§7) Table S1. CI values of NSCLC cell lines.
(§8) Cell line Combination drug NA 10 µM NA 20 µM
(§9) CI values were calculated from the data of percent inhibition of cell death by PI staining. Each CI
(§10) value was analyzed by CompuSyn software. […]

For data set [6], the system named is NCI-H460 cells. The data set can be described thus: MTT viability assay, NCI-H460. Type of data set: cell-based, human. The settings on record: Homo sapiens, 24 h. As to the method: as §4, §5
In data set [7] the test system is NCI-H460 cells. The data set can be described thus: Cell death by PI staining / flow cytometry, NCI-H460. The data set is classed as cell-based, human. To be noted: H460, PI staining, CompuSyn. As to the method:
as §6, §7, §8, §9, §10

Data set [8] relates to NCI-H1650 cells. The data set can be described thus: MTT viability assay, NCI-H1650. To be noted: Homo sapiens, 24 h. Type of data set: cell-based. Here is the method:
as §4, §5

Data set [9] deals with NCI-H1975 cells. The data set can be described thus: Cell death by PI staining / flow cytometry, NCI-H1975. Type of data set: cell-based, human. The settings on record: NA 10 µM + gefitinib 10 µM, CompuSyn. Here is the method:
as §6, §7, §8, §9, §10

In data set [10] the test system is A549 cells. Put plainly: Cell death by PI staining / flow cytometry, A549. The data set is classed as cell-based, human. The settings on record: PI staining, CompuSyn. Here is the method:
as §6, §7, §8, §9, §10

The test system of data set [11] is HCC827 cells. The data set can be described thus: Cell death by PI staining / flow cytometry, HCC827. The data set is classed as cell-based, human. The settings on record: NA 10 µM + gefitinib 0.01 µM, CompuSyn. Here is the method:
as §6, §7, §8, §9, §10

The test system of data set [12] is NCI-H1975 cells. Put plainly: MTT viability assay, NCI-H1975. The data set is classed as cell-based. The settings on record: Homo sapiens, 24 h. As to the method: as §4, §5
The test system of data set [13] is NCI-H460 xenograft. The data set can be described thus: NCI-H460 tumor xenograft in mice. The data set is classed as in vivo, BALB/c nude mice. To be noted: NA49 20 mg/kg IP every other day + cisplatin 2 mg/kg IP twice a week. As to the method:
as §3

In data set [14] the test system is PC9 cells. Put plainly: Cell death by PI staining / flow cytometry, PC9. The data set is classed as cell-based, human. To be noted: NA 10 µM + gefitinib 0.01 µM, CompuSyn. As to the method:
as §6, §7, §8, §9, §10

Data set [15] relates to PC9 cells. The data set can be described thus: MTT viability assay, PC9. To be noted: Homo sapiens, PC-9, 24 h. The data set is classed as cell-based. As to the method: as §4, §5
Data set [16] has as its system A549 cells. The data set can be described thus: MTT viability assay, A549. Type of data set: cell-based. To be noted: Homo sapiens, 24 h.

In the case of `Cc1cc(=O)c2c(O)cc(OCC3CS3)cc2o1` (stereo not drawn) [J2], the “Survival Rate (%)” value in [1] (2.5 mg/kg), in [1] (7.5 mg/kg), in [1] (15 mg/kg) and in [1] (30 mg/kg) was 100% throughout. For the same compound, the LD50 at 14 days in data set [2] was over 30 mg/kg.

As to `COc1ccc(-c2coc3cc(OCC4CS4)ccc3c2=O)c(OC)c1` (stereo not drawn) [NA49], the “Tumor growth, combination with NA49 compared to Gef alone” value in [3] is recorded as “greater reduction in tumor growth”. The IC50 in data set [4] came out at 64.4 ± 2.31 µM; in data set [6], 38.1 ± 0.69 µM; in data set [8], 62.9 ± 1.58 µM; in data set [12] it was 89.4 ± 2.57 µM; in [15], 73 ± 2.66 µM; in data set [16], 62.5 ± 0.9 µM. In addition, the “CI value (combination index)” value in data set [5] (NA 10 µM + gefitinib 10 µM) worked out at 0.828; in data set [5] (NA 10 µM + gefitinib 20 µM) it was 0.487; in data set [7] (NA 10 µM + cisplatin 3 µM) it was 0.942; in data set [7] (NA 20 µM + cisplatin 3 µM), 0.969; in [9], 0.392; in [10] (NA 10 µM + cisplatin 5 µM) it was 0.698. The “CI value (combination index)” value in data set [10] (NA 20 µM + cisplatin 5 µM) is listed as 0.823; in [11] it was 0.651; in [14] it was 1.84. Besides, the “Tumor growth, combination with NA49 compared to cisplatin alone” value in data set [13] is on record as “greater reduction in tumor growth”. Besides, the “Survival Rate (%)” value stood at 100% in data set [1] (2.5 mg/kg), 100% in data set [1] (7.5 mg/kg), 100% in data set [1] (15 mg/kg) and 75% in [1] (30 mg/kg). For the same compound, in [2], the LD50 at 14 days is over 30 mg/kg.
